We go through 1 compound from patent US20040214850A1, “1-glyoxylamide indolizines for treating cancer” (Synta Pharmaceuticals Corp., priority 2001, published 2004).

For the test, the system named is human breast MDA435 tumors. Kind of test: Tumor growth inhibition assay, human breast tumor (MDA435) xenograft in nude mice. It counts as in vivo, nude mice (CD-1 nu/nu). On the procedure: The in vivo anti-cancer efficacy of Compound (1) was assessed in tumor bearing mice using a tumor growth inhibition assay. Human breast tumor (MDA-435) cells were implanted by injection of a tumor cell suspension subcutaneously in the flank of a nude mouse. Treatment of the tumor with an experimental compound began after the tumor had been established (volume was approximately 100 mm^3). The animal then began a multiple injection schedule where the compound was administered orally. Tumors were measured two times a week. During the course of this assay, animals were monitored daily for signs of toxicity including body weight loss.
A supplemented media was prepared from 50% DMEM/Dulbecco Modified Eagle Medium (High Glucose), 50% RPMI 1640, 10% FBS/Fetal Bovine Serum (Hybridoma Tested; Sterile Filtered), 1% L-Glutamine, 1% Penicillin-Streptomycin, 1% MEM Sodium Pyruvate, 1% MEM Non-Essential Amino Acids. […]
The flask was washed with 10 ml of sterile room temperature phosphate buffered saline (PBS). […] The supernatant was aspirated and the cell pellet was resuspended in 10 ml of supplemented media and the cells were counted. […]
The above procedure for trypsinizing and centrifuging the cells were followed. The supernatant was aspirated and the cell pellet was resuspended in 10 ml of sterile PBS and the cells were counted. […]
A general note: A xenograft is tissue or cells of one species grown in another, often human tumour cells in immunodeficient mice.

Consider `Cc1cc(NC(=O)C(=O)c2cc(Cc3ccc(C#N)cc3)n3ccccc23)sn1` [Compound (1), 2-(3-(4-cyanobenzyl)-indolizin-1-yl)-N-(3-methyl-isothiazol-5-yl)-2-oxo-acetamide], for which, under “MDA435 in nude mice, 25 mg/kg and 50 mg/kg orally, 3 times a week for 3 weeks, FIG. 1”, the tumor growth inhibition result is on record as “significantly inhibits tumor growth”. Further, the “reduction of the volume of tumors” value (MDA435 tumors in nude mice, administered orally) is “greater than 50%”.
